Like-named read-outs stand apart in the source and are kept apart here.

One assay has as its target T1, CDK2/Cyclin E (Homo sapiens, UniProt P24941).
T1 construct: purchased Eurofins 14-475
Put plainly: Biochemical CDK inhibition assay (Caliper mobility shift), CDK2/Cyclin E. The conditions noted are these: read-out: CDK2/cyclin E1 IC50. How it is done: (§1) Inhibitory effects of the compounds of the disclosure were measured in biochemical assays that measure the enzymatic phosphorylation activity of CDK enzyme in complex of Cyclin proteins phosphorylates 7.5 micromolar fluorescently labelled peptide substrate, 5-FAM-QSPKKG-CONH2, (FL-Peptide 18, Perkin Elmer, 760362) in the presence of adenosine-5′-triphosphate (ATP) and varying concentrations of the test compound in 100 mM 2-[4-(2-hydroxyethyl)piperazin-1-yl] ethanesulfonic acid (HEPES), pH 7.5, 10 mM MgCl2, 0.015% Brij-35, 1 mM dithiothreitol (DTT), 1.0% dimehylsulfoxide (DMSO). […] Reactions proceeded until between 10% to 20% total peptides were phosphorylated at room temperature (25° C.) and were terminated with 35 mM 2,2′,2″,2′″-(ethane-1,2-diyldinitrilo)tetraacetic acid (EDTA). Product was detected using the Caliper mobility shift detection method where the phosphorylated peptide (product) and substrate were electrophoretically separated and measured. Percent activity was plotted against log concentration of compound and points to generate an apparent IC50. The following CDK enzymes in complex with different cyclin proteins were used in these assays: • CDK1/Cyclin B1, GST-tag (BPS, 40454), 1.5 nM used in the assay • CDK2/Cyclin E (Eurofins, 14-475), 1.25 nM used in the assays
(§2) For inhibitory activity against CDK2/Cyclin E mutant, the following designations are used: ≤10 nM=A; >10-20 nM=B; >20-30 nM=C; >30-100 nM=D and >100=E. For inhibition CDK1/Cyclin B1, GST-tag: ≥500 nM=A; <100-500 nM=B; <100 nM=C.

Another assay concerns the target T2, CDK1/Cyclin B1, GST-tag (Homo sapiens, UniProt P06493).
T2 construct: GST; purchased BPS 40454
Put plainly: Biochemical CDK inhibition assay (Caliper mobility shift), CDK1/Cyclin B1. The protocol: as §1, §2

T2 sequence (P06493 whole entry): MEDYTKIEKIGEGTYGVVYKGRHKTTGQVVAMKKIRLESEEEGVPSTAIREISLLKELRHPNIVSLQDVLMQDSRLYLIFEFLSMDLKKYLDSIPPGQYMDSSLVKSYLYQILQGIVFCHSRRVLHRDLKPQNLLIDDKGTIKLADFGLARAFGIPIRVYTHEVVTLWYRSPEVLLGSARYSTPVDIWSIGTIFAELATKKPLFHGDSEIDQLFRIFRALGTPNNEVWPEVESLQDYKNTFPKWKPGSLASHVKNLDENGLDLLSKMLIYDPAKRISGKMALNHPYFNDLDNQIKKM
T2 sequence (P14635 whole entry partner): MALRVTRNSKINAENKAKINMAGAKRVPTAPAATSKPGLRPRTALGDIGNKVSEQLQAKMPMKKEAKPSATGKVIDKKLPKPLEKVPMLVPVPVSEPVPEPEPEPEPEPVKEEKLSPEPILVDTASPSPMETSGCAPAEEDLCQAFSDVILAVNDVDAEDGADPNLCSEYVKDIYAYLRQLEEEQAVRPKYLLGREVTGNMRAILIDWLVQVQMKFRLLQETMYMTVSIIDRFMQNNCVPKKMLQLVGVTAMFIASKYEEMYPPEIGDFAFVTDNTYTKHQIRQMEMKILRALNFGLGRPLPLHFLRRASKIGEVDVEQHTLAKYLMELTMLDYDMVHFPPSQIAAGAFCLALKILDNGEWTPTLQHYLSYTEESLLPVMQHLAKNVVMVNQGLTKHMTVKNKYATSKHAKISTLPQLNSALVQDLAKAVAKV

For `NS(=O)(=O)c1ccc(Nc2ncc(C(F)(F)F)c(-c3cnn(C4CCOCC4)c3)n2)c(F)c1` [Example 47, 3-fluoro-4-((4-(1-(tetrahydro-2H-pyran-4-yl)-1H-pyrazol-4-yl)-5-(trifluoromethyl)pyrimidin-2-yl)amino)benzenesulfonamide], the IC50 at CDK2/Cyclin E was not above 10 nM; at CDK1/Cyclin B1, GST-tag, not below 500 nM.
Taken in the same sequence, the figures for `NS(=O)(=O)c1ccc(Nc2ncc(C(F)(F)F)c(-c3cnn(CC4(O)COC4)c3)n2)c(F)c1` [Example 41, 3-fluoro-4-((4-(1-((3-hydroxyoxetan-3-yl)methyl)-1H-pyrazol-4-yl)-5-(trifluoromethyl)pyrimidin-2-yl)amino)benzenesulfonamide] were 10 to 20 nM and not below 500 nM.
Taken in the same sequence, the figures for `CC(C)(CO)n1cc(-c2nc(Nc3ccc(S(N)(=O)=O)cc3F)ncc2C(F)(F)F)cn1` [Example 22, 3-fluoro-4-((4-(1-(1-hydroxy-2-methylpropan-2-yl)-1H-pyrazol-4-yl)-5-(trifluoromethyl)pyrimidin-2-yl)amino)benzenesulfonamide] were not above 10 nM and 100 to 500 nM.
As for `COc1cc(S(N)(=O)=O)ccc1Nc1ncc(F)c(-c2cnn(CC(C)(C)O)c2)n1` [Example 46, 4-((5-fluoro-4-(1-(2-hydroxy-2-methylpropyl)-1H-pyrazol-4-yl)pyrimidin-2-yl)amino)-3-methoxybenzenesulfonamide], the IC50 is 30 to 100 nM on CDK2/Cyclin E and not below 500 nM on CDK1/Cyclin B1, GST-tag.
For the molecule `CC(C)(O)Cn1cc(-c2nc(Nc3ccc(S(N)(=O)=O)cc3)ncc2C(F)F)cn1` [Example 4, 4-((5-(difluoromethyl)-4-(1-(2-hydroxy-2-methylpropyl)-1H-pyrazol-4-yl)pyrimidin-2-yl)amino)benzenesulfonamide], the IC50 is not above 10 nM at CDK2/Cyclin E and less than 100 nM at CDK1/Cyclin B1, GST-tag.
Regarding `COc1cc(S(N)(=O)=O)ccc1Nc1ncc(Cl)c(-c2cnn(CC(C)(C)O)c2)n1` [Example 28, 4-((5-chloro-4-(1-(2-hydroxy-2-methylpropyl)-1H-pyrazol-4-yl)pyrimidin-2-yl)amino)-3-methoxybenzenesulfonamide], the IC50 on CDK2/Cyclin E was not above 10 nM; at CDK1/Cyclin B1, GST-tag, 100 to 500 nM.
Turning to “3-fluoro-4-((4-(1-(2-hydroxyethyl)-1H-pyrazol-4-yl)-5-(trifluoromethyl)pyrimidin-2-yl)amino)benzenesulfonamide or 3-fluoro-4-((2-(1-(2-hydroxyethyl)-1H-pyrazol-4-yl)-5-(trifluoromethyl)pyrimidin-4-yl)amino)benzenesulfonamide [Example 33]”, the IC50 was 10 to 20 nM at CDK2/Cyclin E (apparent IC50, 1.25 nM enzyme, 1.0 mM ATP or ATP Km, 7.5 micromolar FL-Peptide 18, 25° C.) and not below 500 nM at CDK1/Cyclin B1, GST-tag (apparent IC50, 1.5 nM enzyme, 1.0 mM ATP or ATP Km, 7.5 micromolar FL-Peptide 18, 25° C.).
For the molecule `NS(=O)(=O)c1ccc(Nc2ncc(C(F)(F)F)c(-c3cnn(C4(CO)CC4)c3)n2)c(F)c1` [Example 16, 3-fluoro-4-((4-(1-(1-(hydroxymethyl)cyclopropyl)-1H-pyrazol-4-yl)-5-(trifluoromethyl)pyrimidin-2-yl)amino)benzenesulfonamide], the IC50 at CDK2/Cyclin E was not above 10 nM; at CDK1/Cyclin B1, GST-tag, 100 to 500 nM.
Taken in the same sequence, the figures for `Cc1cc(S(N)(=O)=O)ccc1Nc1ncc(Cl)c(-c2cnn(CC(C)(C)O)c2)n1` [Example 14] were not above 10 nM and less than 100 nM.
As to `CC(C)(O)Cn1cc(-c2nc(Nc3ccc(S(N)(=O)=O)cc3)ncc2C(F)(F)F)cn1` [Example 5, 4-((4-(1-(2-hydroxy-2-methylpropyl)-1H-pyrazol-4-yl)-5-(trifluoromethyl)pyrimidin-2-yl)amino)benzenesulfonamide], the IC50 on CDK2/Cyclin E is not above 10 nM; on CDK1/Cyclin B1, GST-tag, less than 100 nM.
Take `Cc1cc(S(N)(=O)=O)ccc1Nc1ncc(C(F)(F)F)c(-c2cnn(CC(C)(C)O)c2)n1` [Example 2, 4-((4-(1-(2-hydroxy-2-methylpropyl)-1H-pyrazol-4-yl)-5-(trifluoromethyl)pyrimidin-2-yl)amino)-3-methylbenzenesulfonamide]: the IC50 on CDK2/Cyclin E was not above 10 nM; on CDK1/Cyclin B1, GST-tag, 100 to 500 nM.
Consider `CC(C)(O)Cn1cc(-c2nc(Nc3ccc(S(N)(=O)=O)cc3)ncc2F)cn1` [Example 18, 4-((5-fluoro-4-(1-(2-hydroxy-2-methylpropyl)-1H-pyrazol-4-yl)pyrimidin-2-yl)amino)benzenesulfonamide], for which the IC50 is not above 10 nM on CDK2/Cyclin E and less than 100 nM at CDK1/Cyclin B1, GST-tag.
As for `Cc1cc(S(N)(=O)=O)ccc1Nc1ncc(F)c(-c2cnn(CC(C)(C)O)c2)n1` [Example 31, 4-((5-fluoro-4-(1-(2-hydroxy-2-methylpropyl)-1H-pyrazol-4-yl)pyrimidin-2-yl)amino)-3-methylbenzenesulfonamide], the IC50 on CDK2/Cyclin E is not above 10 nM; at CDK1/Cyclin B1, GST-tag it was 100 to 500 nM.
Consider `N#Cc1cnc(Nc2ccc(S(N)(=O)=O)cc2)nc1-c1cnn(C2COC2)c1` [Example 39, 4-((5-cyano-4-(1-(oxetan-3-yl)-1H-pyrazol-4-yl)pyrimidin-2-yl)amino)benzenesulfonamide], for which the IC50 at CDK2/Cyclin E is 10 to 20 nM; on CDK1/Cyclin B1, GST-tag, not below 500 nM.
Consider `CCc1cnc(Nc2ccc(S(N)(=O)=O)cc2F)nc1-c1cnn(CC(C)(C)O)c1` [Example 42, 4-((5-ethyl-4-(1-(2-hydroxy-2-methylpropyl)-1H-pyrazol-4-yl)pyrimidin-2-yl)amino)-3-fluorobenzenesulfonamide], for which the IC50 on CDK2/Cyclin E was 20 to 30 nM; at CDK1/Cyclin B1, GST-tag, not below 500 nM.
`NS(=O)(=O)c1ccc(Nc2ncc(C(F)(F)F)c(-c3cnn(C4COC4)c3)n2)c(F)c1` [Example 43, 3-fluoro-4-((4-(1-(oxetan-3-yl)-1H-pyrazol-4-yl)-5-(trifluoromethyl)pyrimidin-2-yl)amino)benzenesulfonamide]: the IC50 on CDK2/Cyclin E is 20 to 30 nM; on CDK1/Cyclin B1, GST-tag it was not below 500 nM.
Regarding `CC(C)(O)Cn1cc(-c2nc(Nc3ccc(S(N)(=O)=O)cc3Cl)ncc2Cl)cn1` [Example 23, 3-chloro-4-((5-chloro-4-(1-(2-hydroxy-2-methylpropyl)-1H-pyrazol-4-yl)pyrimidin-2-yl)amino)benzenesulfonamide], the IC50 on CDK2/Cyclin E was not above 10 nM; at CDK1/Cyclin B1, GST-tag, 100 to 500 nM.

These data come from patent US12668585B2, “Substituted pyrimidinyl-pyrazoles as CDK2 inhibitors” (BLUEPRINT MEDICINES CORPORATION, priority 2021, dated 2026).
